Assay results: US5744621A, “Irreversible HIV protease inhibitors, intermediates, compositions and processes for the preparation thereof” (Lucky Limited., priority 1992, dated 1998)

Key:
[1] = system: HIV-1; assay: Anti-viral activity: syncytium formation (Sup T1) or reverse transcriptase assay (H9); assay type: cell-based; settings: Human immunodeficiency virus 1, SUP-T1
Description: The anti-viral activity of the compounds of the present invention was determined by measuring the concentration of the compounds that inhibits the proliferation of HIV by 50%(IC50) through a survey for syncytium formation or reverse transcriptase assay.
1×10^5 cells of each of H9(ATCC HTB 176) and Sup T1 cell lines were added to the wells of a 24-well microtiter plate and various concentrations so the compounds of the present invention were added thereto. 200 TCID50 (200-fold of 50% tissue culture infection dose) of HIV-1 inoculum and rpmi-1640 medium(Sigma Chemical Co., U.S.A) were added successively to the wells and the plate was incubated at 37° C. In case of Sup T1, the number of syncytium formed was investigated after 3 to 9 days. IC50 of each compound was determined by measuring the concentration of inhibitor that can reduce the number of syncytium by 50% compared with those formed in the same condition without the inhibitor.
In case of H9, three-quarters(3/4) of the culture medium in volume was refreshed every 3 days; and 6 ml of the culture fluid was centrifuged at 1000 rpm for 10 minutes. To 5 ml of the resulting supernatant were added 2.5 ml of 30% polyethyleneglycol(PEG, M.W. 6000-8000) and 0.4M NaCl. The resulting solution was allowed to stand at 0° C. overnight to precipitate virus particles. The solution was centrifuged at 2000 rpm for 45 minutes, the supernatant was discarded therefrom and the precipitate was diluted with 20 μl of a reverse transcriptase suspension buffer(50 mM tris-HCl, pH 7.5, 1 mM dithiothreitol, 20% glycerol, 0.25M KCl and 0.25% Triton X-100). The resulting suspension was stored in an Effendorf tube at -70° C. until used. A procedure of freezing said virus suspension for 2 minutes in dry ice and thawing same at 37° C. for 2 minutes was repeated three times and the resulting suspension was centrifuged at 4° C. The resulting supernatant was used in carrying out the reverse transcriptase assay.
10 μl of the said viral suspension was added to a solution of: 10 μl of buffer solution(250 mM tris-HCl, pH 7.5, 37.5 mM MgCl2, 0.25% triton X-100), 1.2 μl of 200 mM dithiothreitol, 5 μl of 10 μM oligo(dT)-poly(A)(Boeringer Manheim, 12-18 oligomer), 1 μl(1 μCi) of ^3 H-TTP(Thymidinetri-phosphate) and 23.6 μl of water; and the resulting mixture was placed at 37° C. After 1 hour, the mixture was poured onto a WHATMAN DEB1 filter and the filter was washed three times with 5 ml of 2×SSC buffer solution(17.53 g of sodium chloride, 8.82 g of sodium citrate, pH 7.0, 1 liter of water) for about 10 minutes each time and twice with 95% ethanol for 10 seconds. The filter was put onto aluminium foil and dried with an infra-red lamp. The amount of radioactivity was counted using a liquid scintillation counter. IC50 of each compound was determined by measuring the concentration of inhibitor that can reduce the activity of reverse transcriptase by 50%.

[2] = molecular target: T1, HIV-1 protease (Human immunodeficiency virus type 1 group M subtype B, UniProt P04585); assay: Assay for inhibitory effect on HIV protease (residual enzyme activity, HPLC of substrate cleavage); assay type: biochemical; settings: pH 5.5; for Ki / kinact: HIV-1 protease 2.6 nM; for Ki: inhibition constant; for kinact: rate constant of covalent bond formation, read-out: kina (converted); for kinact/KI: second order rate constant, HIV-1 protease, read-out: kina /KI (converted)
T1 construct: 2.6 nM of HIV-1 protease
Description: The inhibitory effect on HIV protease of the compounds of the present invention was determined by the following method.
To a buffer solution comprising 50 mM sodium acetate, pH 5.5, 1 mM dithiothreitol(DTT), 1 mM ethylenediaminetetraacetate (EDTA), 0.75M ammonium sulfate, 0.2M sodium chloride and 0.1% NP40(NONIDET P-40; Sigma Chemical Co., U.S.A.), were added various concentrations of a compound selected from Compound Nos. 1 to 92 to prepare a preincubation solution. Inhibition reaction was started with the addition of 2.6 nM of HIV-1 protease to the preincubation solution. Each 10 μl of the reaction solution was taken at a given time interval and added to 80 μl of assay solution containing 100 μM of reaction substrate in the same buffer solution as above to assay for the residual enzyme activity. In this context, an oligopeptide(KM =20 μM) consisting of 11 amino acids, i.e., Ser-Ile-Ala-Glu-(p-NO2)-Phe-Leu-Val-Arg-Ala-Lys-His, was used as a reaction substrate, which oligopeptide was to be cleaved in two by the breakage of amide bond between (P--NO2)-Phe and Leu upon the attack of HIV protease. The reaction rate was determined by subjecting the substrate before the reaction and the product after the reaction to HPLC separation and then measuring the relative amount of the product, using the strong absorbance of (p--NO2)-Phe at 280 nm. The amount of reduction in enzyme activity according to the elapsed time were measured and the natural logarithmic values(ln) of the measured amounts were plotted against time to obtain a linear graph and kobs was calculated from the slope of the linear graph.
The inhibition constant was calculated according to the following equation: [formula] wherein: kobs is a rate constant indicating the rate of reduction in enzyme activity according to the elapsed time under the presence of a given concentration of inhibitor,
kina is a rate constant indicating the rate of chemical reaction forming covalent bond between an enzyme and an inhibitor in Michaelis-Menten complex,
KI is an inhibition constant indicating the dissociation rate of Michaelis-Menten complex into an enzyme and an inhibitor, and
[I] means the inhibitor concentration.
The above equation is applicable to an experiment carried out under the condition in which the concentration of inhibitor is far higher than that of enzyme(Steady State Kinetic). […] The inhibition constants KI and kina and second order rate constant kina /KI were obtained by inputting the value of [E]/([E]+[EI]+[EI']) into KINSIM/FITSIM program. FIG. 1 exemplifies a result of the experiment determining the binding ratio of enzymes and inhibitors, which result was obtained by reacting the enzyme and the inhibitor in various concentration ratios for a sufficient time period(at least for 30 minutes), and then plotting the relative activity of the remaining enzyme against [conc. of inhibitor]/[conc. of enzyme].

[3] = Cytotoxicity in H9 or Sup T1 cells (trypan blue dye exclusion); assay type: cell-based; settings: human; concentration that causes death of cells by 50%; H9 or Sup T1 cells, 37° C; read-out: CT50 (the source's name)
Description: To determine the cytotoxicity of the compounds of the present invention, 0.1 μM to 100 μM of the novel compounds were added to H9 cell or Sup T1 cell and the mixture was cultured on a rpmi-1640 medium at 37° C. The medium was refreshed every 3 days and the extent of cell proliferation was observed using Hemacytometer according to the trypan blue dye exclusion technique which is well known in the art. CT50 (i.e., concentration that causes death of cells by 50%) was determined. For reference, AZT(Burrows-Wellcome), A-75925 (Abbott, C2 symmetric compound) and Ro-31-8959(F. Hofmann-La Roche) were used as control compounds.

Row | Structure (SMILES) | IC50 [1] | Ki [2] | kinact [2] | kinact/KI [2] | CC50 [3]
1 | CC[C@H](C)[C@H](NC(=O)C[C@@H]1O[C@@H]1[C@H](Cc1ccccc1)NC(=O)[C@H](CC(N)=O)NC(=O)c1ccc2ccccc2n1)C(N)=O [compound 27, N-{5-L-[[N-(2-quinolinecarbonyl)-L-asparaginyl]amino]-(4R,3S)-epoxy-6-phenylhexanoyl}-L-isoleucinyl amide] | 1000 nM | 3 nM | 0.00333 s⁻¹ | 1.12e+06 M⁻¹ s⁻¹ | ~10000 nM
2 | CC[C@H](C)[C@H](NC(=O)C[C@@H]1O[C@@H]1[C@H](Cc1ccccc1)NC(=O)[C@H](CC(N)=O)NC(=O)c1ccc2ccccc2n1)C(=O)NOC [compound 28, N-{5-L-[[N-(2-quinolinecarbonyl)-L-asparaginyl]amino]-(4R,3S)-epoxy-6-phenylhexanoyl}-L-isoleucinyl-(N-methoxy)-amine] | 600 nM | 15 nM | 0.00333 s⁻¹ | 217000 M⁻¹ s⁻¹ | > 100000 nM
3 | CC(C)[C@H](NC(=O)C[C@@H]1O[C@@H]1[C@H](Cc1ccccc1)NC(=O)[C@H](CC(N)=O)NC(=O)c1ccc2ccccc2n1)C(N)=O [compound 32] | 500 nM | 5 nM | 0.00367 s⁻¹ | 733000 M⁻¹ s⁻¹ | > 100000 nM
4 | CC[C@H](C)[C@H](NC(=O)C[C@@H]1O[C@@H]1[C@H](Cc1ccccc1)NC(=O)[C@@H](NC(=O)N(C)Cc1ccccn1)C(C)C)C(=O)OC [compound 35, N-{N-L-[[N,N-(2-pyridylmethyl)(methyl)-amino]carbonylvalinyl]amino-(4R,3S)-epoxy-6-phenyl-hexanoyl}-L-isoleucine methyl ester] | 1000 nM | > 10000 nM |  |  | > 100000 nM
5 | CC[C@H](C)[C@H](NC(=O)C[C@@H]1O[C@@H]1[C@H](CC1CCCCC1)NC(=O)[C@@H](NC(=O)N(C)Cc1ccccn1)C(C)C)C(=O)OC [compound 39, N-{5-L-[[N,N-(2-pyridylmethyl)(methyl)-amino]carbonylvalinyl]amino-(4R, R3S)-epoxy-6-(cyclohexylmethyl)-hexanoyl}-L-isoleucine methyl ester] | 1000 nM | > 10000 nM |  |  | > 100000 nM
6 | CC[C@H](C)[C@H](NC(=O)C[C@@H]1O[C@@H]1[C@H](Cc1ccccc1)NC(=O)[C@H](CC(N)=O)NC(=O)c1ccc2ccccc2n1)C(=O)NO [compound 40] | 700 nM | 33 nM | 0.00417 s⁻¹ | 1270 M⁻¹ s⁻¹ | > 100000 nM
7 | CC(C)[C@H](Cc1ccccc1)NC(=O)C[C@@H]1O[C@@H]1[C@H](Cc1ccccc1)NC(=O)[C@H](CC(N)=O)NC(=O)c1ccc2ccccc2n1 [compound 42, [[(5S)-[N-(2-quinolinecarbonyl)-L-asparaginyl]amino]-(4R,3S)-epoxy-6-phenyl-1-hexanoyl]-[(2S)-[1-phenyl-3-methyl]butyl]amide] | 20 nM | 0.8 nM | 0.0433 s⁻¹ | 5.5e+07 M⁻¹ s⁻¹ | > 100000 nM
8 | CC(C)[C@@H](NC(=O)C[C@@H]1O[C@@H]1[C@H](Cc1ccccc1)NC(=O)[C@H](CC(N)=O)NC(=O)c1ccc2ccccc2n1)c1ccccc1 [compound 43] | 50 nM | 3.2 nM | 0.0283 s⁻¹ | 88300 M⁻¹ s⁻¹ | > 100000 nM
9 | CC(C)[C@H](CCc1ccccc1)NC(=O)C[C@@H]1O[C@@H]1[C@H](Cc1ccccc1)NC(=O)[C@H](CC(N)=O)NC(=O)c1ccc2ccccc2n1 [compound 44] | 300 nM | 11 nM | 0.0417 s⁻¹ | 3.83e+06 M⁻¹ s⁻¹ | > 100000 nM
10 | CC(C)[C@H](CCCc1ccccc1)NC(=O)C[C@@H]1O[C@@H]1[C@H](Cc1ccccc1)NC(=O)[C@H](CC(N)=O)NC(=O)c1ccc2ccccc2n1 [compound 45] | 200 nM | 1.2 nM | 0.04 s⁻¹ | 3.33e+07 M⁻¹ s⁻¹ | > 100000 nM
11 | CC(C)C(NC(=O)C[C@@H]1O[C@@H]1[C@H](Cc1ccccc1)NC(=O)[C@H](CC(N)=O)NC(=O)c1ccc2ccccc2n1)C(C)C [compound 46] | 40 nM | 0.9 nM | 0.00267 s⁻¹ | 3000 M⁻¹ s⁻¹ | > 100000 nM
12 | CC(C)[C@H](NC(=O)C[C@@H]1O[C@@H]1[C@H](Cc1ccccc1)NC(=O)[C@H](CC(N)=O)NC(=O)c1ccc2ccccc2n1)c1ccccc1 [compound 47] | 70 nM | 12 nM | 0.0383 s⁻¹ | 3.17e+06 M⁻¹ s⁻¹ | > 100000 nM
13 | CC(C)C(Cc1ccccc1)NC(=O)C[C@@H]1O[C@@H]1[C@H](Cc1ccccc1)NC(=O)[C@H](CC(N)=O)NC(=O)c1ccc2ccccc2n1 (stereo partly shown) [compound 48] | 500 nM | 600 nM | 0.035 s⁻¹ | 58300 M⁻¹ s⁻¹ | ~5000 nM
14 | CC(C)[C@@H](CCc1ccccc1)NC(=O)C[C@@H]1O[C@@H]1[C@H](Cc1ccccc1)NC(=O)[C@H](CC(N)=O)NC(=O)c1ccc2ccccc2n1 [compound 49] | > 5000 nM | 800 nM | 0.03 s⁻¹ | 38300 M⁻¹ s⁻¹ | > 100000 nM
15 | CC(C)[C@@H](CCCc1ccccc1)NC(=O)C[C@@H]1O[C@@H]1[C@H](Cc1ccccc1)NC(=O)[C@H](CC(N)=O)NC(=O)c1ccc2ccccc2n1 [compound 50] | > 5000 nM | 950 nM | 0.025 s⁻¹ | 26700 M⁻¹ s⁻¹ | > 100000 nM
16 | NC(=O)C[C@H](NC(=O)OCc1ccccc1)C(=O)N[C@@H](Cc1ccccc1)[C@H]1O[C@H]1CCc1ccccc1 [compound 52, 2-L-(N-benzyloxycarbonyl-L-asparaginyl)amino-(3R,4S)-epoxy-1,6-diphenylhexane] | 700 to 1200 nM | 100 nM | 0.0005 s⁻¹ | 5000 M⁻¹ s⁻¹ | > 100000 nM
